In ChEMBL document CHEMBL1201862, “PubChem BioAssay data set” (2004):
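Briefly, cells in 96-well plates were exposed to five compound concentrations for 48 h, and endpoints were estimated by linear interpolation. GI50: concentration for 50% inhibition of growth.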 Active and inactive are the calls of the source. Cut-off read from the data, not from the text of the source: active = GI50 up to about 1.1 µM and inactive = higher.

Legend:
Assay in all cases: NCI tumour cell line growth inhibition, 48 h
UACC-257 = system: UACC-257
SW-620 = system: SW-620
SR = system: SR
HOP-62 = system: HOP-62
SNB-19 = system: SNB-19
DLD-1 = system: DLD-1
OVCAR-8 = system: OVCAR-8
LXFL 529 = system: LXFL 529
COLO 205 = system: COLO 205
SNB-75 = system: SNB-75
CAKI-1 = system: CAKI-1
M14 = system: M14
HL-60 = system: HL-60
SK-OV-3 = system: SK-OV-3
ACHN = system: ACHN
SK-MEL-28 = system: SK-MEL-28
SF-268 = system: SF-268
XF498 = system: XF498
Malme-3M = system: Malme-3M
OVCAR-3 = system: OVCAR-3
DMS-273 = system: DMS-273
MOLT-4 = system: MOLT-4
NCI-H522 = system: NCI-H522
NCI-H23 = system: NCI-H23
HCT-15 = system: HCT-15
UACC-62 = system: UACC-62
NCI-H226 = system: NCI-H226
SF-295 = system: SF-295
KM12 = system: KM12
HT-29 = system: HT-29
NCI-H460 = system: NCI-H460
HCT-116 = system: HCT-116
A549 = system: A549
HOP-92 = system: HOP-92
UO-31 = system: UO-31
SNB-78 = system: SNB-78
786-0 = system: 786-0
RPMI-8226 = system: RPMI-8226
KM-20L2 = system: KM-20L2
SF-539 = system: SF-539
SN12C = system: SN12C
TK-10 = system: TK-10
OVCAR-5 = system: OVCAR-5
OVCAR-4 = system: OVCAR-4
SK-MEL-2 = system: SK-MEL-2
RXF 631 = system: RXF 631
K562 = system: K562
LOX IMVI = system: LOX IMVI
HCC 2998 = system: HCC 2998
IGROV-1 = system: IGROV-1
U-251 = system: U-251
EKVX = system: EKVX
CCRF-CEM = system: CCRF-CEM
M19-MEL = system: M19-MEL
A498 = system: A498
DMS-114 = system: DMS-114
SK-MEL-5 = system: SK-MEL-5
HOP-18 = system: HOP-18

O=C(CCC(=O)Nc1cccc(Cl)c1)CC(=O)c1ccc(Cl)cc1
GI50 (UACC-257): > 100 µM (inactive)
GI50 (SW-620): > 100 µM (inactive)
GI50 (SR): > 100 µM (inactive)
GI50 (HOP-62): > 100 µM (inactive)
GI50 (SNB-19): > 100 µM (inactive)
GI50 (DLD-1): > 10 µM (inactive)
GI50 (OVCAR-8): > 100 µM (inactive)
GI50 (LXFL 529): > 100 µM (inactive)
GI50 (COLO 205): > 100 µM (inactive)
GI50 (SNB-75): > 100 µM (inactive)
GI50 (CAKI-1): > 100 µM (inactive)
GI50 (M14): > 100 µM (inactive)
GI50 (HL-60): > 100 µM (inactive)
GI50 (SK-OV-3): > 100 µM (inactive)
GI50 (ACHN): > 100 µM (inactive)
GI50 (SK-MEL-28): > 100 µM (inactive)
GI50 (SF-268): > 100 µM (inactive)
GI50 (XF498): > 100 µM (inactive)
GI50 (Malme-3M): > 100 µM (inactive)
GI50 (OVCAR-3): > 100 µM (inactive)
GI50 (DMS-273): > 100 µM (inactive)
GI50 (MOLT-4): > 100 µM (inactive)
GI50 (NCI-H522): > 100 µM (inactive)
GI50 (NCI-H23): > 100 µM (inactive)
GI50 (HCT-15): > 100 µM
GI50 (UACC-62): > 100 µM (inactive)
GI50 (NCI-H226): > 100 µM (inactive)
GI50 (SF-295): > 100 µM (inactive)
GI50 (KM12): > 100 µM (inactive)
GI50 (HT-29): > 100 µM (inactive)
GI50 (NCI-H460): > 100 µM (inactive)
GI50 (HCT-116): > 100 µM (inactive)
GI50 (A549): > 100 µM (inactive)
GI50 (HOP-92): > 100 µM (inactive)
GI50 (UO-31): > 100 µM (inactive)
GI50 (SNB-78): > 100 µM (inactive)
GI50 (786-0): > 100 µM (inactive)
GI50 (RPMI-8226): > 100 µM (inactive)
GI50 (KM-20L2): > 100 µM (inactive)
GI50 (SF-539): > 100 µM (inactive)
GI50 (SN12C): > 100 µM (inactive)
GI50 (TK-10): > 100 µM (inactive)
GI50 (OVCAR-5): > 100 µM (inactive)
GI50 (OVCAR-4): > 100 µM (inactive)
GI50 (SK-MEL-2): > 100 µM (inactive)
GI50 (RXF 631): > 100 µM (inactive)
GI50 (K562): > 100 µM (inactive)
GI50 (LOX IMVI): > 100 µM (inactive)
GI50 (HCC 2998): > 100 µM (inactive)
GI50 (IGROV-1): > 100 µM (inactive)

Cn1c(=O)c2c(nc3n2C(CCl)CO3)n(C)c1=O (stereo not drawn)
GI50 (UACC-257): > 100 µM (inactive)
GI50 (SW-620): > 100 µM (inactive)
GI50 (SR): > 100 µM (inactive)
GI50 (HOP-62): > 100 µM (inactive)
GI50 (U-251): > 100 µM (inactive)
GI50 (SNB-19): > 100 µM (inactive)
GI50 (EKVX): > 100 µM (inactive)
GI50 (CCRF-CEM): > 100 µM (inactive)
GI50 (DLD-1): > 100 µM (inactive)
GI50 (OVCAR-8): > 100 µM (inactive)
GI50 (COLO 205): > 100 µM (inactive)
GI50 (SNB-75): > 100 µM (inactive)
GI50 (CAKI-1): > 100 µM (inactive)
GI50 (M14): > 100 µM (inactive)
GI50 (HL-60): > 100 µM (inactive)
GI50 (SK-OV-3): > 100 µM (inactive)
GI50 (M19-MEL): > 100 µM (inactive)
GI50 (ACHN): > 100 µM (inactive)
GI50 (SK-MEL-28): > 100 µM (inactive)
GI50 (SF-268): > 100 µM (inactive)
GI50 (Malme-3M): > 100 µM (inactive)
GI50 (OVCAR-3): > 100 µM (inactive)
GI50 (DMS-273): > 100 µM (inactive)
GI50 (MOLT-4): > 100 µM (inactive)
GI50 (NCI-H522): > 100 µM (inactive)
GI50 (NCI-H23): > 100 µM (inactive)
GI50 (HCT-15): > 100 µM
GI50 (UACC-62): > 100 µM (inactive)
GI50 (NCI-H226): > 100 µM (inactive)
GI50 (A498): > 100 µM (inactive)
GI50 (SF-295): > 100 µM (inactive)
GI50 (KM12): > 100 µM (inactive)
GI50 (DMS-114): > 100 µM (inactive)
GI50 (HT-29): > 100 µM (inactive)
GI50 (NCI-H460): > 100 µM (inactive)
GI50 (HCT-116): > 100 µM (inactive)
GI50 (HOP-92): > 100 µM (inactive)
GI50 (SK-MEL-5): > 100 µM (inactive)
GI50 (UO-31): > 100 µM (inactive)
GI50 (SNB-78): > 100 µM (inactive)
GI50 (786-0): > 100 µM (inactive)
GI50 (RPMI-8226): > 100 µM (inactive)
GI50 (HOP-18): > 100 µM (inactive)
GI50 (SF-539): > 100 µM (inactive)
GI50 (SN12C): > 100 µM (inactive)
GI50 (TK-10): > 100 µM (inactive)
GI50 (OVCAR-5): > 100 µM (inactive)
GI50 (OVCAR-4): > 100 µM (inactive)
GI50 (SK-MEL-2): > 100 µM (inactive)
GI50 (RXF 631): > 100 µM (inactive)
GI50 (K562): > 100 µM (inactive)
GI50 (HCC 2998): > 100 µM (inactive)
GI50 (IGROV-1): > 100 µM (inactive)
